Measurements from patent US20150290333A1, “PROCESS AND MATERIALS FOR MEDICAL APPLICATIONS” (NATIONAL UNIVERSITY OF SINGAPORE, priority 2012, published 2015).

Tested on: human mesenchymal stem cells
Assay: Pinocytosis inhibition studies
Assay type: cell-based
Settings: PVP, Fc70, Fc400
Protocol: Cells were viewed with a FV300 laser scanning confocal microscope (Olympus, Japan). The excitation beam from a 543-nm HeNe ion laser (MellesGriot, Singapore) was focused by a water immersion objective (60×, NA1.2, Olympus) into the fluorescent sample. For organelle co-localization studies, an additional 488-nm Ar laser (MellesGriot, Singapore) was used to excite fluorescent organelle labels. Images were acquired with the Olympus FV300 software.
hMSCs (Lonza) were pre-incubated for 1 hour with 10 mM methyl beta cyclodextrin (MBCD, Sigma-Aldrich), 28 μM chlorpromazine (CPZ, Sigma-Aldrich), 300 μM amiloride (Am, Sigma-Aldrich), and 10 μM monensin (Mon, Sigma-Aldrich) in serum-free LGDMEM. The cells were then incubated for a further 1 hour with a mixture of each inhibitor and each TRITC-labelled polymer in serum-free LGDMEM.

N=C(N)NC(=O)c1nc(Cl)c(N)nc1N [Am, amiloride]
Effect of pinocytosis inhibitor on uptake of TRITC-labelled polymers (300 μM inhibitor): no significant effects

CN(C)CCCN1c2ccccc2Sc2ccc(Cl)cc21 [CPZ, chlorpromazine]
Effect of pinocytosis inhibitor on uptake of TRITC-labelled polymers (28 μM inhibitor): reduced polymer presence across the board, but trapped Fc in the worm-like compartments

CC[C@@]1([C@@H]2O[C@@H]([C@H]3O[C@@](O)(CO)[C@H](C)C[C@@H]3C)C[C@@H]2C)CC[C@H]([C@]2(C)CC[C@]3(C[C@H](O)[C@@H](C)[C@@H]([C@@H](C)[C@@H](OC)[C@H](C)C(=O)O)O3)O2)O1 [Monensin, monensin]
Effect of pinocytosis inhibitor on uptake of TRITC-labelled polymers (10 μM inhibitor): did not inhibit uptake of polymers but arrested them in a seam of vesicles at the periphery of the cells

methyl-beta-cyclodextrin [MβCD]
Effect of pinocytosis inhibitor on uptake of TRITC-labelled polymers (10 mM inhibitor): completely inhibited uptake of all polymers
